The values that follow come from publication PMC4728504, “Determination of FVIIa-sTF Inhibitors in Toxic Microcystis Cyanobacteria by LC-MS Technique” (Marine Drugs, 2015).

“Also recorded” adds a separate entry of the source. Where two headings read alike, the source gives them in different places.

For test [1], the target named is T1, fVIIa (Homo sapiens, UniProt P08709).
T1 construct: purchased Enzyme Research Laboratories, South Bend, IN, USA HFVIIa
Kind of test: fVIIa inhibitory assay (cephalin buffer, without sTF). It counts as biochemical. The following applies: for fVIIa inhibition, slow binding, in words: 10 and 1 µg/mL, L-α-cephalin buffer, without sTF, three to six hours; for fVIIa inhibitory activity, in words: concentration not given. The protocol:
(§1) All assay experiments were done in a cold condition at 4 °C using an ice bucket until pre-incubation and reaction at 37 °C.
(§2) The fVIIa and fVIIa-sTF assays used L-α-cephalin buffer solution. The fVIIa-sTF assay was performed following the procedure by Nakagura et al. with modification. The L-α-cephalin as buffer solution was prepared as follows: Buffer (A): Five hundred milliliters (500 mL) of water was added to 6.057 g of Tris (hydroxymethyl)aminomethane (Nacalai Tesque, Kyoto, Japan) to make 100 mM Tris-HCl solution; 4.383 g NaCl (Nacalai Tesque) was added to the resulting solution to make […], and 500 mg bovine serum albumin (BSA) (Sigma, A7284, St. Louis, MO, USA) was added. The pH was adjusted to 7.40; Buffer (B): A 200 mL of Buffer A was added to 0.3329 g of CaCl2 (Nacalai Tesque). The resulting solution (Buffer B) was adjusted to pH 7.48 before it was stored at 4 °C in preparation for the next day experiment. A 30 µg/mL 3-sn-phosphatidylethanolamine from the bovine brain (Sigma, USA) or L-α-cephalin was added to Buffer B on the day of the experiment.
The 80 µL 3-sn-phosphatidylethanolamine buffer, 50 µL of […] fVIIa enzyme in a buffer, and 20 µL of sample solution were dispensed in each well of a 96-well plate (Iwaki: 3881-096, Tokyo, Japan). The 96-well plate with the solution was pre-incubated at 37 °C for 5 min separately together with 1 mM of Chromozyme t-PA (N-Methylsulfonyl-D-Phe-Gly-Arg-4-nitranilide acetate), from Roche Diagnostics (Mannheim, Germany), dissolved in water as a substrate. The 50 µL of the substrate was added, and the mixture was agitated to start the reaction.
(§3) The human factor VIIa (HFVIIa) enzyme, purchased from Enzyme Research Laboratories, South Bend, IN, USA, was added and adjusted with 20 mM Tris-HCl/0.1 M NaCl/pH 7.4. The final enzyme concentration should be 95.06 µg/mL. The 100 µL enzyme solutions were stored in plastic cryogenic vials (Iwaki: 2712-002, Tokyo, Japan) at −80 °C until use. The fVIIa enzyme, 95.06 µg/mL, and 100 µL volume solution was added to 7.822 mL of 3-sn-phosphatidylethanolamine buffer on the assay preparation.

In test [2] the test system is fVIIa-sTF. In words: fVIIa-sTF inhibitory assay. It counts as biochemical, human. On the procedure:
as §1, §2
The same buffer preparation for fVIIa assay was used for the fVIIa-sTF inhibitory assay. The fVIIa: sTF ratio was 0.30 µg/mL: 0.39 µg/mL, and was prepared in Section 3.3.2.
as §3
The sTF or Recombinant Human Soluble Tissue Factor (F3-28H) or Human F3 was purchased from Creative Biomart, Shirley, NY, USA. The sTF was added with 10 mM PBS, pH 7.4, to make […] (25.624 µg/mL), and transferred in 300 µL volumes in plastic cryogenic vials (Iwaki: 2712-002, Tokyo, Japan), stored at −80 °C until use. The sTF solution (25.624 µg/mL, 300 µL) was added to 4.7 mL of the 3-sn-phosphatidylethanolamine buffer in an amber bottle before use.
The 30 µL buffer, 100 µL fVIIa-sTF, and 20 µL sample solutions were added to a well in a 96-well plate. The solution was pre-incubated at 37 °C for 5 min, together with 1 mM Chromozym t-PA in water as a substrate. A 50-µL substrate was added to start the reaction, agitated, and the absorbance was monitored at 405 nm using Thermo Scientific Multiskan FC microplate photometer.

In the next test the target is thrombin (Homo sapiens, UniProt P00734). In words: Thrombin inhibitory assay. It counts as biochemical.
Test [3] relates to fVIIa. The following applies: cited from earlier work.
Test [4] concerns fVIIa-sTF. Particulars: P1 moiety; cited from earlier work. The text has this:
We have detected aeruginosins 98A (36) and B (37) from M. aeruginosa NIES-98. The MeOH fractions from the aforementioned cyanobacteria are not active in the fVIIa-sTF assay. Thus, from our readings, we compare the fVIIa-sTF inhibitory activity of aeruginosins to phenylamidine. […] The presence of the cyclic amino alcohol moiety in aeruginosins may contribute to efficient binding against fVIIa. However, this hypothesis needs to be established by a structure–ac ...

T1 sequence (P08709 213-466): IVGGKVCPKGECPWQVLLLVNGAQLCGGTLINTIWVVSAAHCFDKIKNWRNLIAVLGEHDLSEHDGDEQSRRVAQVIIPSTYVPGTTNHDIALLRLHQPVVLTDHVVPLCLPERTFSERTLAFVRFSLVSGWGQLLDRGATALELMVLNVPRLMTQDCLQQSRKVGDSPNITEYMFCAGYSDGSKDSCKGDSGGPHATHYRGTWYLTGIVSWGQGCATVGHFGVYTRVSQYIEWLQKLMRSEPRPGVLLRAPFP
T1 sequence (P08709 61-212): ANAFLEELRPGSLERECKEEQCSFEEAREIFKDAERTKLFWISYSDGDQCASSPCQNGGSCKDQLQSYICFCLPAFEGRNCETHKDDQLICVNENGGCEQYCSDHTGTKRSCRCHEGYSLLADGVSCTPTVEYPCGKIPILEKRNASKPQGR

Regarding oscillapeptin G [Compound 10], the “fVIIa inhibition, slow binding, in words” value on fVIIa [1] is “active against fVIIa with slow binding and inhibition from three to six hours”.
Consider “microcystin-RR [Compound 19, reference compound]”, for which the “fVIIa-sTF inhibition, in words” value in the test on fVIIa-sTF [2] is on record as “not active”.
For the compound aeruginosin K139 [Compound 30], the “active compound attributed by LC-MS in fVIIa-sTF active fraction” value in the test with fVIIa-sTF [2] (dereplication by LC-MS of active fraction, not tested as pure compound) is recorded as “active component; also recorded: active compound”. The “thrombin inhibitory activity, in words” value on thrombin (aeruginosins or MeOH fractions, concentration not given) was “dual inhibitory activity”. For the same compound, on fVIIa [1], the “fVIIa inhibitory activity, in words” value is given as “dual inhibitory activity”.
spumigins A [Compound 21]: in the test on fVIIa-sTF [2] (pure compounds or compound class), the “fVIIa-sTF inhibition, in words” value is listed as “do not inhibit”. Moreover, the “thrombin inhibition, in words” value at thrombin (100 µg/mL, after a long-term storage) is “active”. For the same compound, the “fVIIa inhibitory activity, in words” value at fVIIa [1] is recorded as “do not inhibit”.
aeruginopeptin 228-B [Compound 3]: the “fVIIa inhibition, slow binding, in words” value at fVIIa [1] was “active against fVIIa with slow binding and inhibition from three to six hours”.
Consider “microcystin-LR [Compound 18, reference compound]”, for which the “fVIIa-sTF inhibition, in words” value in the test with fVIIa-sTF [2] is “not active”.
On to oscillarin, for which, in the test with fVIIa [3], the “fVIIa inhibition, in words” value is “fVIIa and thrombin inhibitors”.
Regarding oscillapeptilide 97A [Compound 11], the “fVIIa inhibition, slow binding, in words” value at fVIIa [1] was “active against fVIIa with slow binding and inhibition from three to six hours”.
`N=C(N)c1ccccc1` [phenylamidine]: in the test with fVIIa-sTF [4], the “fVIIa-sTF inhibitory activity, in words” value was “inhibitory activity against fVIIa-sTF”.
Regarding “microcystin-YR [Compound 20, reference compound]”, the “fVIIa-sTF inhibition, in words” value in the test on fVIIa-sTF [2] was “not active”.
